Laboratory results as given in patent US10335400B2, “Treatment of tauopathies with mGluR5 antagonists” (priority 2014, dated 2019).

Assays:
mGluR5-PP2A complex = biological target: T1, mGluR5-PP2A complex (Mus musculus, UniProt Q3UVX5); test: Coimmunoprecipitation of PP2Ac with mGluR5 in primary neurons; format: cell-based; details: primary neuronal cultures, 1 mM BMAA
T1 construct: endogenous in cells; host or cells: mouse primary hippocampal neuronal cultures
Protocol: Mouse hippocampal cell proteins were prepared with low-stringency lysis buffer [50 mM Hepes (pH 7.4), 10% (vol/vol) glycerol, 1.5 mM MgCl2, 5 mM NaF, 1 mM Na3VO4, 1 mM EDTA, 1 mM EGTA, 1% Nonidet P-40, 5 mM AEBSF, 10 μg/mL aprotinin, leupeptin, pepstatin] and were homogenized by several freeze-thaw cycles followed by water bath sonication. The homogenate was centrifuged at 14,000×g at 4° C. for 15 min. For transfection experiments with vector (DsRed) and with DsRed-PP2A catalytic subunit (PP2Ac), primary neurons were processed in a similar manner. The supernatants then were used for immunoprecipitation with mouse anti-PP2A (1D6; Millipore) followed by incubation with protein G-Sepharose (Thermo Scientific). The Western blots of immunoprecipitates were probed with rabbit anti-mGluR5 (Millipore) and rabbit anti-PP2Ac [R123d] (FIG. 55).

mixed cortical cultures = details: injury induced by amyloid-β, 1-methyl-4-phenylpyridinium or methylmercury; cited from earlier work
tau [1] = test: Tau phosphorylation (Western blots, immunofluorescence) in mouse hippocampal primary neurons; format: cell-based
Protocol: Mouse hippocampal neuronal cultures were prepared from d 18 embryos as previously described (1). Briefly, C57BL/6 pregnant female mice from Charles River Laboratories were killed by cervical dislocation. All studies were performed in accordance with the recommendations in the Guide for the Care and Use of Laboratory Animals of the National Institutes of Health (2). The protocol was approved by Institutional Animal Care and Use Committee of the New York Institute for Basic Research in Developmental Disabilities. All surgeries were performed under anesthesia, and all efforts were made to minimize suffering. Embryos were removed and placed in cold Hibernate A (BrainBits, LLC), and all the following steps were performed in ice-cold Hibernate A, under a stereoscopic (dissection) microscope placed in a laminar flow hood. Fetal brains were removed carefully, and forebrains were separated. The hippocampus, including the cortex surrounding the area of the hippocampus, was dissected and cut into small pieces using microsurgical scissors. The cut tissue was transferred with number 5 forceps to 15-mL tubes containing 0.1% trypsin in Versene (Invitrogen Life Technologies) and was incubated for 15 min at 37° C. followed by inactivation with 10% (vol/vol) FBS in Neurobasal complete medium (Neurobasal Medium supplemented with 2×B-27, 0.30% glutamine, 10% FBS, and penicillin/streptomycin, 0.1 mg/mL and 0.1 U/mL respectively). After 3 d, the cells were grown with Neurobasal medium supplemented with only 2×B-27. This procedure typically yields cultures that contain 70-75% neurons and […] supporting cells (3). The cultures were maintained at 37° C. in a humidified atmosphere containing 5% CO2 for 8 or 9 d before experimentation. Every 72 h, the medium was replaced with fresh medium. All medium components were purchased from Invitrogen. The neuronal transfection was performed using Lipofectamine LTX and Plus reagent at 5 d in vitro according to the manufacturer's instructions (Invitrogen). The cells were processed for immunofluorescent staining 3 d after transfection.
(§1) Protein was fractionated by 10% SDS/PAGE, transferred to PVDF membrane, and then blocked with 5% skim milk for 1 h at room temperature. The membrane was probed with anti-IPP2A (5G6, 1:1, 500) (7), anti-I2P2A (10E7, 1:1, 600) (7), anti-tau ˜92e; 1:5,000) (8), anti-tau (R134d; 1:5 000) (9), anti-tau pSer^262/^356 (12E8; 1:500) (10, anti-tau pSer^199, anti-tau pThr^205, anti-tau pThr^212, and pSer^396 (1:1,000) (Biosource), anti-GAPDH (1:2,000) (Santa Cruz Biotechnology), anti-PP2Ac (1:10 000) (BD Transduction Lab), anti pY^307-PP2A and anti-DML^309-PP2A (1:1,000) (Millipore), anti-GSK-3(α/β), anti-pS^9-GSK-3 β, anti-ERK1/2, anti-pT^202/Y^204-ERK1/2, anti-MEK1/2, anti-p9^17/221-MEK1/2, anti-CAMKII, anti-pT^286-CAMKII, anti-p70 S6 kinase, anti-pT^389-p70 S6 kinase, anti-SAPK/JNK, and anti-pT^183/Y^185-SAPK/JNK (1:1,000) (Cell Signaling Technology). The membrane then was incubated with HRP-conjugated secondary antibody (Jackson ImmunoResearch). The protein bands were detected with the enhanced chemiluminescence reagents (Thermo Scientific). Band intensity was measured by Multi-Gauge V3 software (Fuji Photo Film).
Primary hippocampal neuronal cultures grown on four-chamber glass slides were fixed in cold 4% (wt/vol) paraformaldehyde for 15 min and permeabilized in 0.1% Triton X-100 for 15 min followed by incubation in 5% goat serum to block the nonspecific staining for 1 h. The cells then were probed with 12E8 (1:200) overnight at 4° C. Alexa-488-conjugated anti-mouse secondary antibody (1:500) (Jackson Laboratory) was used for fluorescent labeling. The cells on slides were rinsed with PBS, mounted with Fluorogel (Electron Microscopy Sciences) and examined under laser confocal microscope (Nikon Eclipse 90i). […]

tau [2] = test: i.c.v. infusion of BMAA in neonatal rats: hyperphosphorylation of tau; format: in vivo, rat; details: i.c.v. BMAA 1.3 μmol
Protocol: Wistar rats were bred and maintained under standard environmental conditions (12-h light/dark cycles, 22° C.) and were allowed free access to food and water. The animal experiments were carried out in strict compliance with protocols approved by the Animal Welfare Committee of New York State Institute for Basic Research in Developmental Disabilities. On postnatal d 2 (PND2), pups were individually cryo-anesthetized on ice, and 2 μL of 1.3 μmol BMAA in PBS was injected into lateral ventricle using a 10-μL Hamilton syringe (Hamilton Syringe Co.). Control animals were injected with PBS in an identical manner. After infusion of BMAA, rats were killed within 1, 24, 48, 72, or 96 h, and the brains were used for Western blots and PP2A activity assays.
as §1

[3] = BMAA 1 mM vs controls, Western blots, P<0.01
[4] = BMAA 1 mM vs controls, Western blots, P<0.05

T1 sequence (Q3UVX5 19-1203, one chain of several): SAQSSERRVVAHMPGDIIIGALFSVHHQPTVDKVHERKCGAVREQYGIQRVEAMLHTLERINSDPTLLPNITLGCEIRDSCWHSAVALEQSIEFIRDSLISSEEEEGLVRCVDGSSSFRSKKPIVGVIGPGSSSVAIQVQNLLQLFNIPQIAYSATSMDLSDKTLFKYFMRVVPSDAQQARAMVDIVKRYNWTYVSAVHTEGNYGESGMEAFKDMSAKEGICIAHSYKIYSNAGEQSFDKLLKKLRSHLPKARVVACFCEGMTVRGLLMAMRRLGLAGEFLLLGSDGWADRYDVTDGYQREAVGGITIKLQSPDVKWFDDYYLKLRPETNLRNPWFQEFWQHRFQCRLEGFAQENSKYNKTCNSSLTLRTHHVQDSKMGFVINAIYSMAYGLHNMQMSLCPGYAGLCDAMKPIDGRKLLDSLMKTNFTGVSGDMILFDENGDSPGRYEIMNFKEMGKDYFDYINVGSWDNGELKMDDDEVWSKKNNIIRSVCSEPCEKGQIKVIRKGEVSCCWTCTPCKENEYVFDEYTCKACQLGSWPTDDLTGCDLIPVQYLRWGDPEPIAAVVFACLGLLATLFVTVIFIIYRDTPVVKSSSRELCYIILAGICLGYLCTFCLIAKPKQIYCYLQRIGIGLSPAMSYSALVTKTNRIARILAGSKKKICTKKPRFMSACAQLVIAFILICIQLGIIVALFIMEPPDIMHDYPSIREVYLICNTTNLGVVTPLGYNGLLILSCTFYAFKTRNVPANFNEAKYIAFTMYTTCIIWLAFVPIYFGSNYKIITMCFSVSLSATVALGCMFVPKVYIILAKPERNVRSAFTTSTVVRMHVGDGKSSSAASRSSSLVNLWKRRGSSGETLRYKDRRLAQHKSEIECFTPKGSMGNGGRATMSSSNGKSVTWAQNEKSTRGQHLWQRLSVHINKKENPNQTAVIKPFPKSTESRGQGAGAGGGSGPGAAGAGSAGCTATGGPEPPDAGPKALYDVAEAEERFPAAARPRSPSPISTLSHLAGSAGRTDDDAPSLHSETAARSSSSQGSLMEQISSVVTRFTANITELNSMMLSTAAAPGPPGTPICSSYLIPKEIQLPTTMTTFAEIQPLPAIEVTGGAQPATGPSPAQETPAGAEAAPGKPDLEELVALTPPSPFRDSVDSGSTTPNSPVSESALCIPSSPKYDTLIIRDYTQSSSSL

CNC[C@H](N)C(=O)O [BMAA, β-N-methylamino-L-alanine]
association of PP2Ac with mGluR5 (mGluR5-PP2A complex): led to the dissociation
BMAA concentration potentiating neuronal injury (mixed cortical cultures): 10 µM
hyperphosphorylation of tau at Ser396 (tau [1]; BMAA 1 mM vs controls, Western blots): not at Ser^396
hyperphosphorylation of tau at Ser262/356 (12E8 site) (tau [1]; [3]): significantly increased
hyperphosphorylation of tau at Thr205 (tau [1]; [3]): significantly increased
hyperphosphorylation of tau at Ser199 (tau [1]; [4]): significantly increased
hyperphosphorylation of tau at Thr212 (tau [1]; [4]): significantly increased
expression of tau phosphorylated at Ser262/356 (tau [1]; immunohistofluorescent analysis, 12E8 staining, BMAA-treated primary neurons): increased
time of peak hyperphosphorylation of tau at Ser262/356 (tau [2]): 24 to 48 h
time of peak hyperphosphorylation of tau at Thr212 (tau [2]): 24 to 48 h
time of peak phosphorylation of tau at Ser199 (tau [2]): 72 to 96 h
time of peak phosphorylation of tau at Ser396 (tau [2]): 72 to 96 h
time of peak phosphorylation of tau at Thr205 (tau [2]): 72 to 96 h
